Reference: paper PMC12298822 (Molecules, 2025)

Columns and labels:
[1] = cited from earlier work
[2] = 100 mg dose; cited from earlier work
[3] = Stability of stock and working solutions; format: physicochemical
Procedure: These stock solutions were diluted with 50% acetonitrile to prepare working standard solutions. The working solutions’ calibration curve (CC) concentrations were set at 50, 100, 500, 1000, 2500, 5000, and 10,000 ng/mL, while the quality control (QC) concentrations were 150, 3000, and 8000 ng/mL. The IS concentration was prepared at 1000 ng/mL. All working stock solutions were prepared and stored at −20 °C until use. […] Consequently, the final calibration curve range was 5–1000 ng/mL. […] All results were within the acceptable deviation limit of ±15% from the nominal concentrations. To assess the plasma stability of the analyte, low, medium, and high QC levels (n = 3) were tested under various conditions, including refrigerated storage at 4 °C for 24 h, deep-freezing at −70 °C for 7 h, three freeze–thaw cycles (between −70 °C and room temperature), and storage in the autosampler at 10 °C for 30 h. All measured concentrations under these conditions met the predefined acceptance criteria of ±15%, confirming the robustness and reliability of the analytical method.

[4] = Pharmacokinetic study after a single oral 100 mg sitagliptin tablet in healthy Korean male subjects (LC-MS/MS of plasma); format: in vivo, human; conditions: single oral 100 mg tablet, fasting
Procedure: (§1) Human plasma samples were removed from a −70 °C deep freezer and thawed at room temperature. After vortexing and centrifugation, 100 µL of plasma was transferred into a glass tube. To this, 20 µL of the IS (1000 ng/mL) was added, followed by the addition of 2 mL of MTBE as the extraction solvent. The mixture was vortexed vigorously for 10 min and centrifuged at 1699 g for 10 min at 4 °C. The upper organic layer (2 mL) was carefully transferred to a new tube and evaporated to dryness under a nitrogen stream at 40 °C. The dried residue was reconstituted with a total volume of 1 mL of a reconstitution solvent composed of 0.01% formic acid in DW and 100% ACN (1:1, v/v), vortexed for 10 min, and centrifuged again at 1699× g. A 5 µL aliquot of the clear supernatant was injected into the LC–MS/MS system for analysis.
This study procedures were conducted with the principles of the Helsinki Declaration (World Medical Association Declaration of Helsinki 2000) and Korean Good Clinical Practice guidelines. The study was approved by the Institutional Review Board (IRB) of Kyung Hee University Hospital (IRB No. KHUH 2023-07-039; approval date: 20 October 2023). […] Blood samples were collected using EDTA-K2 anticoagulant tubes at various time points: pre-dose (0 h), and at 0.5, 1, 1.5, 2, 2.5, 3, 4, 6, 8, 16, 24, and 48 h following administration. Once collected, the blood samples were centrifuged at 3000 rpm for 10 min to separate the plasma, which was then transferred to labeled tubes and stored at −70 °C until analysis. All clinical procedures, including dosing, sampling, and analysis, were conducted consistently across all subjects.
Pharmacokinetic parameters such as Cmax (maximum plasma concentration), Tmax (time to reach Cmax), T1/2 (elimination half-life), and CL/F (apparent oral clearance) were determined from individual plasma concentration–time profiles. Non-compartmental analysis for extravascular administration was performed using BA Cal 2007 software (MFDS, version 1.0.0). This analysis calculated parameters including AUClast (area under the concentration–time curve from 0 to 48 h) and AUCinf (area under the curve extrapolated to infinity). The statistical analysis of the pharmacokinetic data was conducted using K-BE Test II software (version 2.0.2), which was developed and distributed by the MFDS [26].

[5] = cited from earlier work; remark: listed apart in the source
[6] = Stability of sitagliptin in human plasma samples under storage and handling conditions; format: in vitro ADME
Procedure: as §1
The stability of both stock and working solutions was evaluated at low and high QC levels (n = 3) under storage conditions of room temperature (25 °C) for 3 h and −20 °C for 7 h. All results were within the acceptable deviation limit of ±15% from the nominal concentrations. To assess the plasma stability of the analyte, low, medium, and high QC levels (n = 3) were tested under various conditions, including refrigerated storage at 4 °C for 24 h, deep-freezing at −70 °C for 7 h, three freeze–thaw cycles (between −70 °C and room temperature), and storage in the autosampler at 10 °C for 30 h. All measured concentrations under these conditions met the predefined acceptance criteria of ±15%, confirming the robustness and reliability of the analytical method.

N[C@@H](CC(=O)N1CCn2c(nnc2C(F)(F)F)C1)Cc1cc(F)c(F)cc1F [Sitagliptin, 7-[(3R)-3-amino-1-oxo-4-(2,4,5-trifluorophenyl)butyl]-5,6,7,8-tetrahydro-3-(trifluoromethyl)]
apparent volume of distribution [1]: approximately 198 L | fraction of total clearance by hepatic metabolism (CYP3A4 and CYP2C8) [1]: < 16% | oral bioavailability [1]: approximately 87% | maximum concentration (Cmax) [2]: 327.98 ng/mL | terminal half-life (T1/2) [2]: 8.92 h | time to reach maximum concentration (Tmax) [2]: 2.68 h | Solution stability (%), mean ([3]; stock solution, room temperature (3 h), 15 ng/mL level, vs freshly prepared): 100.89% | Solution stability (%), mean ([3]; stock solution, room temperature (3 h), 800 ng/mL level, vs freshly prepared): 99.25% | Solution stability (%), mean ([3]; working solution, room temperature (7 h), 15 ng/mL level): 100.19% | Solution stability (%), mean ([3]; working solution, room temperature (7 h), 800 ng/mL level): 95.93% | half-life ([4]; human, plasma, n = 8, mean): 8.47 ± 3.08 h | Cmax ([4]; human, n = 8, plasma, mean): 373 ng/mL | Tmax ([4]; human, n = 8, plasma, mean): 2.06 h | AUClast ([4]; n = 8, 0 to 48 h, mean): 2863.82 ng·h/mL | AUCinf ([4]; n = 8, extrapolated to infinity, mean): 3010.56 ± 302.61 ng·h/mL | binding to plasma proteins [5]: 38% | Plasma sample stability (%), mean ([6]; human plasma, deep freeze (7 h, −70 °C), 15 ng/mL): 99.61% | Plasma sample stability (%), mean ([6]; human plasma, deep freeze (7 h, −70 °C), 300 ng/mL): 96.77% | Plasma sample stability (%), mean ([6]; human plasma, deep freeze (7 h, −70 °C), 800 ng/mL): 97.96% | Plasma sample stability (%), mean ([6]; human plasma, freeze–thaw (3 cycles), 15 ng/mL): 103.73% | Plasma sample stability (%), mean ([6]; human plasma, freeze–thaw (3 cycles), 300 ng/mL): 98.57% | Plasma sample stability (%), mean ([6]; human plasma, freeze–thaw (3 cycles), 800 ng/mL): 97.71% | Plasma sample stability (%), mean ([6]; human plasma, refrigeration (7 h, 4 °C), 15 ng/mL): 100.61% | Plasma sample stability (%), mean ([6]; human plasma, refrigeration (7 h, 4 °C), 300 ng/mL): 100.02% | Plasma sample stability (%), mean ([6]; human plasma, refrigeration (7 h, 4 °C), 800 ng/mL): 96.29% | Plasma sample stability (%), mean ([6]; human plasma, room temperature (7 h), 15 ng/mL): 102.57% | Plasma sample stability (%), mean ([6]; human plasma, room temperature (7 h), 300 ng/mL): 97.43% | Plasma sample stability (%), mean ([6]; human plasma, room temperature (7 h), 800 ng/mL): 96.99% | Plasma sample stability (%), mean ([6]; processed (LLE) plasma sample, autosampler (30 h, 10 °C), 15 ng/mL): 105.20% | Plasma sample stability (%), mean ([6]; processed (LLE) plasma sample, autosampler (30 h, 10 °C), 300 ng/mL): 97.37% | Plasma sample stability (%), mean ([6]; processed (LLE) plasma sample, autosampler (30 h, 10 °C), 800 ng/mL): 96.83%
